Measured values as given in ChEMBL document CHEMBL5365406, “Inhibitors for metallo-β-lactamases from the B1 and B3 subgroups provide an avenue to combat a major mechanism of antibiotic resistance” (Bioorg Med Chem Lett, 2023).
Active and inactive are the calls of the source. The calls are words filed in the database; no cut-off is given here.

Legend:
[1] = tested on: Bacteria; experiment: Inhibition of AIM-1 (unknown origin) at 10 uM relative to control
[2] = molecular target: Metallo-beta-lactamase type 2 (Bacteria) (UniProt C7C422); experiment: Inhibition of NDM-1 (unknown origin) at 10 uM relative to control
Metallo-beta-lactamase type 2 (Bacteria), sequence (C7C422 whole entry): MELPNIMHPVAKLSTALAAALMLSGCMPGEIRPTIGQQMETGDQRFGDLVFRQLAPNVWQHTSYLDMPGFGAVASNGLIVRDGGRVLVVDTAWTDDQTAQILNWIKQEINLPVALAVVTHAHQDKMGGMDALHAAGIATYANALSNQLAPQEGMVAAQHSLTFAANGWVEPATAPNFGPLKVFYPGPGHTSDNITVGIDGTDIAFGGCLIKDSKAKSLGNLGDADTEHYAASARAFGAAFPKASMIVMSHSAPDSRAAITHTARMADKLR

[3] = tested on: Escherichia coli; experiment: Synergistic antibacterial activity against Escherichia coli expressing CphA in presence of penicillin G by checkerboard sensitivity assay; type: functional, organism-based
[4] = Inhibition of CphA (unknown origin) using meropenem as substrate; design: species or system Bacteria
[5] = molecular target: Metallo-beta-lactamase type 2 (Bacteria) (UniProt C7C422); experiment: Competitive inhibition of NDM-1 (unknown origin) using penicillin G as substrate by Michaelis-Menten equation based kinetic analysis
[6] = tested on: Escherichia coli; experiment: Synergistic antibacterial activity against Escherichia coli expressing CphA in presence of cefuroxime by checkerboard sensitivity assay; type: functional, organism-based
[7] = tested on: Escherichia coli; experiment: Synergistic antibacterial activity against Escherichia coli expressing AIM-1 in presence of cefuroxime by checkerboard sensitivity assay; type: functional, organism-based
[8] = tested on: Escherichia coli; experiment: Antagonistic antibacterial activity against Escherichia coli expressing AIM-1 in presence of penicillin G by checkerboard sensitivity assay; type: functional, organism-based
[9] = tested on: Escherichia coli; experiment: Synergistic antibacterial activity against Escherichia coli expressing NDM-1 in presence of penicillin G by checkerboard sensitivity assay; type: functional, organism-based
[10] = molecular target: Metallo-beta-lactamase type 2 (Bacteria) (UniProt C7C422); experiment: Uncompetitive inhibition of NDM-1 (unknown origin) using penicillin G as substrate by Michaelis-Menten equation based kinetic analysis
[11] = tested on: Bacteria; experiment: Competitive inhibition of AIM-1 (unknown origin) using cefuroxime as substrate by Michaelis-Menten equation based kinetic analysis
[12] = tested on: Bacteria; experiment: Uncompetitive inhibition of AIM-1 (unknown origin) using cefuroxime as substrate by Michaelis-Menten equation based kinetic analysis
[13] = tested on: Escherichia coli; experiment: Synergistic antibacterial activity against Escherichia coli expressing CphA in presence of meropenem by checkerboard sensitivity assay; type: functional, organism-based
[14] = tested on: Escherichia coli; experiment: Synergistic antibacterial activity against Escherichia coli expressing AIM-1 in presence of meropenem by checkerboard sensitivity assay; type: functional, organism-based
[15] = tested on: Escherichia coli; experiment: Antagonistic antibacterial activity against Escherichia coli expressing NDM-1 in presence of meropenem by checkerboard sensitivity assay; type: functional, organism-based
[16] = tested on: Escherichia coli; experiment: Synergistic antibacterial activity against Escherichia coli expressing NDM-1 in presence of cefuroxime by checkerboard sensitivity assay; type: functional, organism-based
[17] = tested on: Escherichia coli; experiment: Synergistic antibacterial activity against Escherichia coli expressing AIM-1 in presence of penicillin G by checkerboard sensitivity assay; type: functional, organism-based
[18] = tested on: Escherichia coli; experiment: Antagonistic antibacterial activity against Escherichia coli expressing AIM-1 in presence of meropenem by checkerboard sensitivity assay; type: functional, organism-based
[19] = tested on: Escherichia coli; experiment: Antagonistic antibacterial activity against Escherichia coli expressing AIM-1 in presence of cefuroxime by checkerboard sensitivity assay; type: functional, organism-based
[20] = Stability of the compound in NaBH4/ethanol assessed as oxidation measured after 24 hrs at room temperature; type: physicochemical

| Compound | inhibition [1] | inhibition [2] | Kic [5] | Kiuc [10] | Kic [11] | Kiuc [12] | other results |
| --- | --- | --- | --- | --- | --- | --- | --- |
| N#Cc1c(-c2ccccc2)c(-c2ccccc2)n(Cc2ccccc2)c1/N=C/c1ccc([N+](=O)[O-])cc1 | 40% | 45% | – | – | – | – | – |
| N#Cc1c(-c2ccccc2)c(-c2ccccc2)n(Cc2ccccc2)c1/N=C/c1ccc(O)cc1 | 61% | 49% | 1.3 µM | 0.9 µM | 4.4 µM | 4.7 µM | Activity [3]: Active; IC50 [4]: 45 µM; Activity [6]: Active; Activity [7]: Active; Activity [8]: Active; Activity [9]: Active; Activity [13]: Active; Activity [14]: Active; Activity [15]: Active; Activity [16]: Active |
| N#Cc1c(-c2ccccc2)c(-c2ccccc2)n(Cc2ccccc2)c1/N=C/c1cccs1 | 42% | 57% | 1.7 µM | 11 µM | 4.5 µM | 35 µM | Activity [3]: Active; IC50 [4]: 57 µM; Activity [6]: Active; Activity [8]: Active; Activity [9]: Active; Activity [18]: Active; Activity [19]: Active; Activity [13]: Active; Activity [15]: Active; Activity [16]: Active |
| CC(=O)Nc1ccc(/C=N/c2c(C#N)c(-c3ccccc3)c(-c3ccccc3)n2Cc2ccccc2)cc1 | 10% | 14% | – | – | – | – | – |
| N#Cc1c(-c2ccccc2)c(-c2ccccc2)n(Cc2ccccc2)c1/N=C/c1ccc2ccccc2c1 | 26% | 50% | – | – | – | – | – |
| N#Cc1c(-c2ccccc2)c(-c2ccccc2)n(Cc2ccccc2)c1/N=C/c1cccnc1 | 11% | 28% | – | – | – | – | – |
| N#Cc1c(-c2ccccc2)c(-c2ccccc2)n(Cc2ccccc2)c1/N=C/c1ccccc1 | 42% | 38% | 3.2 µM | 6 µM | 3.6 µM | 11 µM | Activity [3]: Active; IC50 [4]: 75 µM; Activity [6]: Active; Activity [7]: Active; Activity [8]: Active; Activity [9]: Active; Activity [13]: Active; Activity [14]: Active; Activity [15]: Active; Activity [16]: Active |
| N#Cc1c(-c2ccccc2)c(-c2ccccc2)n(Cc2ccccc2)c1NCc1ccccc1 | 32% | 41% | – | 2.7 µM | – | – | Stability [20]: Stable |
| N#Cc1c(-c2ccccc2)c(-c2ccccc2)n(Cc2ccccc2)c1NCc1cccs1 | 25% | 29% | – | – | – | – | – |
| N#Cc1c(-c2ccccn2)c(-c2ccccn2)n(Cc2ccccc2)c1N | inactive | inactive | – | – | – | – | – |

The next lines start with results.

| inhibition [1] | inhibition [2] | Kic [5] | Kiuc [10] | Kic [11] | Kiuc [12] | Compound | other results |
| --- | --- | --- | --- | --- | --- | --- | --- |
| inactive | inactive | – | – | – | – | COC(=O)c1ccc(-c2c(C#N)c(N)n(Cc3ccccc3)c2-c2ccc(C(=O)OC)cc2)cc1 | – |
| 42% | 47% | 9 µM | 5 µM | 11 µM | 19 µM | N#Cc1c(-c2ccccc2)c(-c2ccccc2)n(Cc2ccccc2)c1NC(=O)c1ccccc1 | Activity [3]: Active; Activity [6]: Active; Activity [9]: Active; Activity [17]: Active; Activity [18]: Active; Activity [19]: Active; Activity [13]: Active; Activity [15]: Active; Activity [16]: Active |
| 19% | 27% | 34 µM | 4.4 µM | 6.4 µM | 72 µM | COC(=O)c1ccc(/C=N/c2c(C#N)c(-c3ccccc3)c(-c3ccccc3)n2Cc2ccccc2)cc1 | – |
| 39% | 40% | – | – | – | – | N#Cc1c(-c2ccccc2)c(-c2ccccc2)n(Cc2ccccc2)c1/N=C/c1ccc(C(=O)O)cc1 | – |
| inactive | inactive | – | – | – | – | N#Cc1c(-c2ccc(C(=O)O)cc2)c(-c2ccc(C(=O)O)cc2)n(Cc2ccccc2)c1N | – |
